Tested on: HBV
Assay: HBV-DNA Antiviral Assay Using HepG2.117 Cells (intracellular HBV DNA by qPCR)
Assay type: cell-based, hepatitis B virus (genotype D)
Conditions: Hepatitis B virus, HepG2.117
Summary of the method: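 Endpoint: qPCR copy number of intracellular HBV DNA after 3-day compound exposure, with inhibition set relative to the 2% DMSO control. The cells were doxycycline-free HepG2.117 carrying a Tet-off genotype D genome, dosed at nine 4-fold dilutions. A duplicate plate gave ATP-based viability (CC50).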

SMILES | EC50
C[C@H]1Cn2c(c3n(c2=O)C[C@@H](F)CN(Cc2ccccc2)C3=O)CN1C(=O)c1ccc(Br)c(Cl)c1 (stereo in doubt) [Example 371, 13-benzyl-4-(4-bromo-3-chlorobenzoyl)-11-fluoro-4,7,9,13-tetraazatricyclo[7.5.0.0^[2,7]]tetradec-1-ene-8,14-dione] | < 100 nM
C[C@H]1Cn2c(c3n(c2=O)C[C@H](F)CN(Cc2ccccc2)C3=O)CN1C(=O)c1ccc(Br)c(Cl)c1 (stereo in doubt) [Example 372, 13-benzyl-4-(4-bromo-3-chlorobenzoyl)-11-fluoro-4,7,9,13-tetraazatricyclo[7.5.0.0^[2,7]]tetradec-1-ene-8,14-dione] | 100 to 500 nM
C[C@@H]1Cn2c(c3n(c2=O)C[C@@H](F)CN(Cc2ccccc2)C3=O)CN1C(=O)c1ccc(Br)c(Cl)c1 (stereo in doubt) [Example 373, rac-(5R,11S)-13-benzyl-4-(4-bromo-3-chloro-benzoyl)-11-fluoro-5-methyl-4,7,9,13-tetrazatricyclo[7.5.0.0^2,7]tetradec-1-ene-8,14-dione] | 100 to 500 nM
C[C@@H]1Cn2c(c3n(c2=O)C[C@H](F)CN(Cc2ccccc2)C3=O)CN1C(=O)c1ccc(Br)c(Cl)c1 (stereo in doubt) [Example 374, rac-(5R,11R)-13-benzyl-4-(4-bromo-3-chloro-benzoyl)-11-fluoro-5-methyl-4,7,9,13-tetrazatricyclo[7.5.0.0^2,7]tetradec-1-ene-8,14-dione] | 100 to 500 nM
C[C@H](NC(=O)c1c2n(c(=O)n1-c1ccc(OCC(F)(F)F)cc1)CCN(C(=O)c1ccc(Br)c(Cl)c1)C2)c1ccc(OCC(N)=O)cc1-n1cccn1 (stereo in doubt) [Example 380, 7-(4-bromo-3-chloro-benzoyl)-3-oxo-N-[rac-(1S)-1-[4-(2-amino-2-oxo-ethoxy)-2-pyrazol-1-yl-phenyl]ethyl]-2-[4-(2,2,2-trifluoroethoxy)phenyl]-6,8-dihydro-5H-imidazo[1,5-a]pyrazine-1-carboxamide] | > 5000 nM
C[C@@H](NC(=O)c1c2n(c(=O)n1-c1ccc(OCC(F)(F)F)cc1)CCN(C(=O)c1ccc(Br)c(Cl)c1)C2)c1ccc(OCC(N)=O)cc1-n1cccn1 (stereo in doubt) [Example 381, 7-(4-bromo-3-chloro-benzoyl)-3-oxo-N-[rac-(1R)-1-[4-(2-amino-2-oxo-ethoxy)-2-pyrazol-1-yl-phenyl]ethyl]-2-[4-(2,2,2-trifluoroethoxy)phenyl]-6,8-dihydro-5H-imidazo[1,5-a]pyrazine-1-carboxamide] | > 5000 nM
C[C@H](NC(=O)c1c2n(c(=O)n1-c1ccc(OCC(F)(F)F)cc1)CCN(C(=O)c1ccc(Br)c(Cl)c1)C2)c1cccc2nccnc12 (stereo in doubt) [Example 384, 7-(4-bromo-3-chloro-benzoyl)-3-oxo-N-[rac-(1S)-1-quinoxalin-5-ylethyl]-2-[4-(2,2,2-trifluoroethoxy)phenyl]-6,8-dihydro-5H-imidazo[1,5-a]pyrazine-1-carboxamide] | 100 to 500 nM
C[C@@H](NC(=O)c1c2n(c(=O)n1-c1ccc(OCC(F)(F)F)cc1)CCN(C(=O)c1ccc(Br)c(Cl)c1)C2)c1cccc2nccnc12 (stereo in doubt) [Example 385, 7-(4-bromo-3-chloro-benzoyl)-3-oxo-N-[rac-(1R)-1-quinoxalin-5-ylethyl]-2-[4-(2,2,2-trifluoroethoxy)phenyl]-6,8-dihydro-5H-imidazo[1,5-a]pyrazine-1-carboxamide] | 100 to 500 nM
C[C@@H](NC(=O)c1c2n(c(=O)n1-c1ccc(-n3cccn3)cc1)CCN(C(=O)c1ccc(Br)c(Cl)c1)C2)c1ccccc1F (stereo in doubt) [Example 405, 7-(4-bromo-3-chloro-benzoyl)-3-oxo-2-(4-pyrazol-1-ylphenyl)-N-[rac-(1R)-1-(2-fluorophenyl)ethyl]-6,8-dihydro-5H-imidazo[1,5-a]pyrazine-1-carboxamide] | < 100 nM
C[C@H](NC(=O)c1c2n(c(=O)n1-c1ccc(-n3cccn3)cc1)CCN(C(=O)c1ccc(Br)c(Cl)c1)C2)c1ccccc1F (stereo in doubt) [Example 409, 7-(4-bromo-3-chloro-benzoyl)-3-oxo-2-(4-pyrazol-1-ylphenyl)-N-[rac-(1S)-1-(2-fluorophenyl)ethyl]-6,8-dihydro-5H-imidazo[1,5-a]pyrazine-1-carboxamide] | 500 to 5000 nM
C[C@H]1Cn2c(c(C(=O)NCc3ccccc3-n3cccn3)n(-c3ccc(OC4CC4)cc3)c2=O)CN1C(=O)c1ccc(Br)c(Cl)c1 (stereo in doubt) [Example 438, rac-(6S)-7-(4-bromo-3-chloro-benzoyl)-2-[4-(cyclopropoxy)phenyl]-6-methyl-3-oxo-N-[(2-pyrazol-1-ylphenyl)methyl]-6,8-dihydro-5H-imidazo[1,5-a]pyrazine-1-carboxamide] | < 100 nM
C[C@@H]1Cn2c(c(C(=O)NCc3ccccc3-n3cccn3)n(-c3ccc(OC4CC4)cc3)c2=O)CN1C(=O)c1ccc(Br)c(Cl)c1 (stereo in doubt) [Example 439, rac-(6R)-7-(4-bromo-3-chloro-benzoyl)-2-[4-(cyclopropoxy)phenyl]-6-methyl-3-oxo-N-[(2-pyrazol-1-ylphenyl)methyl]-6,8-dihydro-5H-imidazo[1,5-a]pyrazine-1-carboxamide] | 100 to 500 nM
C[C@@H]1Cn2c(c(C(=O)NCc3ccccc3-n3cncn3)n(-c3ccc(OC4CC4)cc3)c2=O)CN1C(=O)c1ccc(Br)c(Cl)c1 (stereo in doubt) [Example 447, rac-(6R)-7-(4-bromo-3-chloro-benzoyl)-2-[4-(cyclopropoxy)phenyl]-6-methyl-3-oxo-N-[[2-(1,2,4-triazol-1-yl)phenyl]methyl]-6,8-dihydro-5H-imidazo[1,5-a]pyrazine-1-carboxamide] | 100 to 500 nM
C[C@H]1Cn2c(c(C(=O)NCc3ccccc3-n3cncn3)n(-c3ccc(OC4CC4)cc3)c2=O)CN1C(=O)c1ccc(Br)c(Cl)c1 (stereo in doubt) [Example 448, rac-(6S)-7-(4-bromo-3-chloro-benzoyl)-2-[4-(cyclopropoxy)phenyl]-6-methyl-3-oxo-N-[[2-(1,2,4-triazol-1-yl)phenyl]methyl]-6,8-dihydro-5H-imidazo[1,5-a]pyrazine-1-carboxamide] | < 100 nM
COc1ccc(CNC(=O)c2c3n(c(=O)n2CCc2ccccc2)CCN(C(=O)c2ccc(Br)c(Cl)c2)C3)cc1 [Example 15, 7-(4-bromo-3-chlorobenzoyl)-N-[(4-methoxyphenyl)methyl]-3-oxo-2-(2-phenylethyl)-5H,6H,8H-imidazo[1,5-a]pyrazine-1-carboxamide] | > 5000 nM
COc1ccc(CNC(=O)c2c3n(c(=O)n2-c2cccc(OC)c2)CCN(C(=O)c2ccc(Br)c(Cl)c2)C3)cc1 [Example 21, 7-(4-bromo-3-chloro-benzoyl)-2-(3-methoxyphenyl)-N-[(4-methoxyphenyl)methyl]-3-oxo-6,8-dihydro-5H-imidazo[1,5-a]pyrazine-1-carboxamide] | 500 to 5000 nM
O=C(NCc1ccccc1)c1c2n(c(=O)n1-c1ccc(F)cc1)CCN(C(=O)c1ccc(Br)c(Cl)c1)C2 [Example 22, N-benzyl-7-(4-bromo-3-chloro-benzoyl)-2-(4-fluorophenyl)-3-oxo-6,8-dihydro-5H-imidazo[1,5-a]pyrazine-1-carboxamide] | 500 to 5000 nM

From patent publication US11591341B2 (ALIGOS THERAPEUTICS, INC., priority 2019, dated 2023)
